Here are results for four compounds from US11459547B2, “Method for producing osteoblast cluster using human iPS cells” (priority 2017, dated 2022).

“Also recorded” adds a separate entry of the source.

Common to all, as to assay type: cell-based
The test system of assay [1] is human iPS cell-derived mesoderm cell constructs. Kind of assay: Osteoblastic differentiation induction with small-molecule compound, histochemical observation of mineralization (von Kossa). On the procedure:
As a control, non-adherent culture was performed without shaking. The medium was changed every 7 days. The resultant sample was subjected to immunofluorescent staining, specifically hematoxylin and eosin (H&E) staining, von Kossa staining, or Osteocalcin, and subjected to histochemical observation.

Assay [2] deals with human iPS cell embryoid bodies (409B2). Briefly: Mesoderm differentiation induction of iPS cell embryoid bodies, immunofluorescent staining of mesodermal marker Brachyury. Conditions: embryoid body formation 1 day, then static culture 5 days in mesoderm differentiation induction medium with 30 CHIR99021 and/or 5 cyclopamine; the label names the compound(s) present. On the procedure: The iPS cells were washed with phosphate buffered saline (PBS), and treated with 1 ml of a CTK solution (0.25% trypsin, 0.1 mg/ml collagenase IV, 10 mM CaCl2), 20% KSR) at 37° C. for 1 minute. After that, the CTK solution was removed by aspiration, and 1 ml of PBS was added. PBS was removed, and only the feeder cells exfoliated from the culture plate were removed by aspiration as much as possible. After that, adherent iPS cells remaining in the culture plate were collected using 5 ml of ES medium (RCHEMD001) supplemented with 4 ng/ml FGF. The resultant cell suspension was transferred to a low-attachment culture dish (Thermo Fisher Scientific, Cat. #150239), and subjected to static culture for 1 day to induce the formation of embryoid bodies. As a control, the formation of embryoid bodies was performed for 0 days or 4 days.
After static culture had been performed for 1 day, iPS cell embryoid bodies were collected. […] As a control, osteoblastic differentiation induction described in (1-4) was performed after the embryoid body formation described in (1-2) without mesoderm differentiation induction. For the evaluation of mesoderm differentiation induction, immunofluorescent staining using a mesodermal marker Brachyury was performed.

The test system is the same in assay [3]. Briefly: Mesoderm induction ratio by immunofluorescent staining of Brachyury. Conditions: embryoid body formation 1 day; mesoderm differentiation induction medium with or free of CHIR99021 or cyclopamine; the label names the compound(s) present; 17% in the absence of both. On the procedure:
The immunostaining was pertained using: anti-Brachyury polyclonal antibody (AF2085, R&D SYSTEMS) as a primary antibody; Alexa Fluor594-labeled anti-goat IgG antibody (Thermo Fisher Scientific) as a secondary antibody; and Hoechst 33258 (Thermo Fisher Scientific) for nuclear staining.
The mesoderm induction ratio was determined from the ratio of Brachyury-positive embryoid bodies in all embryoid bodies present in an immunostaining photographic image.

The test system of assay [4] is human iPS cell embryoid bodies. Kind of assay: Comparative Example: retinoic acid culture instead of mesoderm induction, then osteoblastic differentiation induction; shape of cell construct. Conditions: ES medium 2 days, then 2 days with 1 µM retinoic acid, then osteoblastic differentiation induction without mesoderm induction step. The protocol:
iPS cells were obtained in accordance with the method described in (1-1) above, and subjected to culture in an ES medium corresponding to (1-2) above for 2 days. The resultant embryoid bodies of the iPS cells were collected, and further cultured for 2 days using the above-mentioned ES medium having blended therein 1 µM retinoic acid (all-trans retinoic acid: Sigma). After that, the step of inducing differentiation into osteoblasts described in (1-4) above was performed without the step of inducing differentiation into mesoderm cells described in (1-3) above.

Turning to `CC(=O)N(O)CCCCCNC(=O)CCC(=O)N(O)CCCCCNC(=O)CCC(=O)N(O)CCCCCN` [desferrioxamine], in assay [1] (day 30 of the osteoblastic differentiation induction, 10 μM desferrioxamine), the “mineralization of cell construct on day 30” value is reported as “markedly mineralized cell construct”. For the same compound, the “mineralization of osteoblast construct” value in assay [1] (osteoblastic differentiation induction medium supplemented with 10 μM desferrioxamine or 1 μM simvastatin, non-adherent shaking culture) is reported as “markedly mineralized osteoblast construct”.

Consider `CC1=C2C[C@H]3[C@@H](CC=C4C[C@@H](O)CC[C@@]43C)[C@@H]2CC[C@]12O[C@@H]1C[C@H](C)CN[C@H]1[C@H]2C` [cyclopamine], for which the “expression of the mesodermal marker (Brachyury), immunofluorescent staining” value in assay [2] was “the expression of Brachyury was found, though not as marked as in the presence of CHIR99021”.

Consider `Cc1c[nH]c(-c2cnc(NCCNc3ccc(C#N)cn3)nc2-c2ccc(Cl)cc2Cl)n1` [CHIR99021], for which, in assay [2], the “expression of the mesodermal marker (Brachyury), immunofluorescent staining” value is given as “marked expression of Brachyury was similarly found”. Besides, the “mesoderm induction ratio (ratio of Brachyury-positive embryoid bodies in all embryoid bodies)” value in assay [3] turned out to be 57%.

Turning to `CC1=C(/C=C/C(C)=C/C=C/C(C)=C/C(=O)O)C(C)(C)CCC1` [retinoic acid, all-trans retinoic acid], in assay [4], the “shape of resultant osteoblast-like cell construct” value was “not solid cell constructs, but were bag-like; also recorded: hollow bag-like (sac-like) shape”.
